From patent EP2975030B1, “DIHYDROPYRIDAZINE-3,5-DIONE DERIVATIVE” (Chugai Seiyaku Kabushiki Kaisha, priority 2013, dated 2014)

test system: rat small-intestinal brush border membrane vesicles; experiment: Inhibitory effect on 33PO4 uptake into rat small-intestinal brush border membrane vesicles (rapid filtration method); format: biochemical, Wistar female rat; conditions: 1 µM test compound; 33PO4 uptake into rat small-intestinal BBMVs, 60 seconds
Outline: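 33PO4 uptake into rat small-intestinal brush border membrane vesicles measured by rapid filtration. Reactions were stopped with ice-cold buffer (110 mM NaCl, 1 mM KH2PO4, 10 mM HEPES pH 7.5), filtered and washed. Vesicle-associated radioactivity was counted by liquid scintillation.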

In order of falling “Rate of uptake inhibition (%) (1 µM)” value:
1. CN1N(Cc2ccc(OC3COC3)c(F)c2F)C(=O)C(C(=O)Nc2ccc(C(F)(F)F)cc2-c2cc(C(F)(F)F)ncn2)=C(O)C12CCC2 [Example 403, 6-(2,3-Difluoro-4-(oxetan-3-yloxy)benzyl)-9-hydroxy-5-methyl-7-oxo-N-(4-(trifluoromethyl)-2-(6-(trifluoromethyl)pyrimidin-4-yl)phenyl)-5,6-diazaspiro[3.5]non-8-ene-8-carboxamide]  71%
2. CN1N(Cc2ccc(OCCCCOC[C@H](O)CO)c(F)c2F)C(=O)C(C(=O)Nc2ccc(C(F)(F)F)cc2-c2cc(C(F)(F)F)ncn2)=C(O)C12CCC2 [Example 390]  58%
3. CN(CCOc1ccc(CN2C(=O)C(C(=O)Nc3ccc(C(F)(F)F)cc3-c3cc(C(F)(F)F)ncn3)=C(O)C3(CCC3)N2C)c(F)c1F)C1COC1 [Example 402, 6-(2,3-Difluoro-4-(2-(methyl(oxetan-3-yl)amino)ethoxy)benzyl)-9-hydroxy-5-methyl-7-oxo-N-(4-(trifluorometyl)-2-(6-(trifluoromtthyl)pyrimidin-4-yl)phenyl)-5,6-diazaspiro[3.5]non-8-ene-8-carboxamide]  54%
4. CN(CCOc1ccc(CN2C(=O)C(C(=O)Nc3ccc(C(F)(F)F)cc3-c3cc(C(F)(F)F)ncn3)=C(O)C3(CCCC3)N2C)c(F)c1F)C1COC1 [Example 412, 7-(2,3-Difluoro-4-(2-(methyl(oxetan-3-yl)amino)ethoxy)benzyl)-10-hydroxy-6-methyl-8-oxo-N-(4-(trifluoromethyl)-2-(6-(trifluoromethyl)pyrimidin-4-yl)phenyl)-6,7-diazaspiro[4.5]dec-9-ene-9-carboxamide]  52%
5. COCCN(C)CCNc1ccc(CN2C(=O)C(C(=O)Nc3ccc(C(F)(F)F)cc3-c3cc(C(F)(F)F)ncn3)=C(O)C3(CCCC3)N2C)c(F)c1F [Example 417, 7-(2,3-Difluoro-4-((2-((2-methoxyethyl)(methyl)amino)ethyl)amino)benzyl)-10-hydroxy-6-methyl-8-oxo-N-(4-(trifluoromethyl)-2-(6-(trifluoromethyl)pyrimidin-4-yl)phenyl)-6,7-diazaspiro[4.5]dec-9-ene-9-carboxamide]  48%
6. CN1N(Cc2ccc(OCCCOC[C@H](O)CO)c(F)c2F)C(=O)C(C(=O)Nc2ccc(C(F)(F)F)cc2-c2cc(C(F)(F)F)ncn2)=C(O)C12CCCC2 [Example 392]  47%
7. CC(CN1CCOCC1)Oc1ccc(CN2C(=O)C(C(=O)Nc3ccc(C(F)(F)F)cc3-c3cc(C(F)(F)F)ncn3)=C(O)C3(CCC3)N2C)c(F)c1F (stereo not drawn) [Example 408]  47%
8. CN1N(Cc2ccc(OCCCCOC[C@H](O)CO)c(F)c2F)C(=O)C(C(=O)Nc2ccc(C(F)(F)F)cc2-c2cc(C(F)(F)F)ncn2)=C(O)C12CCCC2 [Example 393]  45%
9. CN1N(Cc2ccc(OCCCCCOC[C@H](O)CO)c(F)c2F)C(=O)C(C(=O)Nc2ccc(C(F)(F)F)cc2-c2cc(C(F)(F)F)ncn2)=C(O)C12CCCC2 [Example 394]  45%
10. COCCN1CCC[C@H]1COc1ccc(CN2C(=O)C(C(=O)Nc3ccc(C(F)(F)F)cc3-c3cc(C(F)(F)F)ncn3)=C(O)C3(CCC3)N2C)c(F)c1F [Example 404, 6-[[2,3-Difluoro-4-[[(2S)-1-(2-methoxyethyl)pirrolidin-2-yl]methoxy]phenyl]methyl]-9-hydroxy-5-methyl-7-oxo-N-[4-(trifluoromethyl)-2-[6-(trifluoromethyl)pyrimidin-4-yl]phenyl]-5,6-diazaspiro[3.5]non-8-ene-8-carboxamide]  43%
11. CN1N(Cc2ccc(OCCCCCOC[C@H](O)CO)c(F)c2F)C(=O)C(C(=O)Nc2ccc(C(F)(F)F)cc2-c2cc(C(F)(F)F)ncn2)=C(O)C12CCC2 [Example 391]  42%
12. CN1N(Cc2ccc(OCCCCOCCCO)c(F)c2F)C(=O)C(C(=O)Nc2ccc(C(F)(F)F)cc2-c2cc(C(F)(F)F)ncn2)=C(O)C12CCCC2 [Example 399]  42%
13. CN1N(Cc2ccc(OCCCCCOCCO)c(F)c2F)C(=O)C(C(=O)Nc2ccc(C(F)(F)F)cc2-c2cc(C(F)(F)F)ncn2)=C(O)C12CCCC2 [Example 397]  40%
14. CN1N(Cc2ccc(OCCCCOC[C@H](O)CO)c(F)c2F)C(=O)C(C(=O)Nc2ccc(C(F)(F)F)cc2-c2ccc(C(F)(F)F)nc2)=C(O)C12CCC2 [Example 384]  39%
15. CN1N(Cc2ccc(OCCCCCOC[C@H](O)CO)c(F)c2F)C(=O)C(C(=O)Nc2ccc(C(F)(F)F)cc2-c2ccc(C(F)(F)F)nc2)=C(O)C12CCC2 [Example 385]  39%
16. CN1N(Cc2ccc(OCCCOCCO)c(F)c2F)C(=O)C(C(=O)Nc2ccc(C(F)(F)F)cc2-c2cc(C(F)(F)F)ncn2)=C(O)C12CCCC2 [Example 395]  39%
17. COCCOCCOc1ccc(CN2C(=O)C(C(=O)Nc3ccc(C(F)(F)F)cc3-c3cc(C(F)(F)F)ncn3)=C(O)C3(CCC3)N2C)c(F)c1F [Example 401]  39%
18. CN1N(Cc2ccc(OCCCCOCCO)c(F)c2F)C(=O)C(C(=O)Nc2ccc(C(F)(F)F)cc2-c2cc(C(F)(F)F)ncn2)=C(O)C12CCCC2 [Example 396]  38%
19. CN1N(Cc2ccc(OCCCOC[C@H](O)CO)c(F)c2F)C(=O)C(C(=O)Nc2ccc(C(F)(F)F)cc2-c2ccc(C(F)(F)F)nc2)=C(O)C12CCCC2 [Example 386]  36%
20. CN1N(Cc2ccc(OCCCCCOCCCO)c(F)c2F)C(=O)C(C(=O)Nc2ccc(C(F)(F)F)cc2-c2cc(C(F)(F)F)ncn2)=C(O)C12CCCC2 [Example 400]  36%
21. CN1N(Cc2ccc(OCCCOCCCO)c(F)c2F)C(=O)C(C(=O)Nc2ccc(C(F)(F)F)cc2-c2cc(C(F)(F)F)ncn2)=C(O)C12CCCC2 [Example 398]  34%
22. CN1CCC(Oc2ccc(CN3C(=O)C(C(=O)Nc4ccc(C(F)(F)F)cc4-c4cc(C(F)(F)F)ncn4)=C(O)C4(CCC4)N3C)c(F)c2F)CC1 [Example 411]  32%
23. COCCN1CC[C@@H](Oc2ccc(CN3C(=O)C(C(=O)Nc4ccc(C(F)(F)F)cc4-c4cc(C(F)(F)F)ncn4)=C(O)C4(CCC4)N3C)c(F)c2F)C1 [Example 405, 6-[[2,3-Difluoro-4-[(3R)-1-(2-methoxyethyl)pyrrolidin-3-yl]oxyphenyl]methyl]-9-hydroxy-5-methyl-7-oxo-N-[4-(trifluoromethyl)-2-[6-(trifluoromethyl)pyrimidin-4-yl)phenyl]-5,6-diazaspiro[3.5]non-8-ene-8-carboxamide]  30%
24. CN1N(Cc2ccc(OC(C)(C)CN3CCOCC3)c(F)c2F)C(=O)C(C(=O)Nc2ccc(C(F)(F)F)cc2-c2cc(C(F)(F)F)ncn2)=C(O)C12CCC2 [Example 407, 6-[[2,3-Difluoro-4-(2-methyl-1-morpholin-4-ylpropan-2-yl)oxyphenyl]methyl]-9-hydroxy-5-methyl-7-oxo-N-[4-(trifluoromethyl)-2-[6-(trifluoromethyl)pyrimidin-4-yl]phenyl]-5,6-diazaspiro[3.5]non-8-ene-8-carboxamide]  30%
25. CN1N(Cc2ccc(OCCCOC[C@H](O)CO)c(F)c2F)C(=O)C(C(=O)Nc2ccc(C(F)(F)F)cc2-c2cc(C(F)(F)F)ncn2)=C(O)C12CCC2 [Example 389]  29%
26. COCCN1CC(Oc2ccc(CN3C(=O)C(C(=O)Nc4ccc(C(F)(F)F)cc4-c4cc(C(F)(F)F)ncn4)=C(O)C4(CCC4)N3C)c(F)c2F)C1 [Example 406, 6-[[2,3-Difluoro-4-[1-(2-methoxyethyl)azetidin-3-yl]oxyphenyl]methyl]-9-hydroxy-5-methyl-7-oxo-N-[4-(trifluoromethyl)-2-[6-(trifluoromethl)pyrimidin-4-yl]phenyl]-5,6-diazaspiro[3.5]non-8-ene-8-carboxamide]  27%
27. CN1N(Cc2ccc(OCCCCOC[C@H](O)CO)c(F)c2F)C(=O)C(C(=O)Nc2ccc(C(F)(F)F)cc2-c2ccc(C(F)(F)F)nc2)=C(O)C12CCCC2 [Example 387]  23%
28. CN1N(Cc2ccc(OCCOCCNCC(O)CO)c(F)c2F)C(=O)C(C(=O)Nc2ccc(C(F)(F)F)cc2-c2cc(C(F)(F)F)ncn2)=C(O)C12CCCC2 (stereo not drawn) [Example 419, 7-[[4-[2-[2-(2,3-Dihydroxypropylamino)ethoxy]ethoxy]-2,3-difluorophenyl]methyl]-10-hydroxy-6-methyl-8-oxo-N-[4-(trifluoromethyl)-2-[6-(trifluoromethyl)pyrimidin-4-yl]phenyl]-6,7-diazaspiro[4.5]dec-9-ene-9-carboxamide]  22%
29. CN(CCOCCOc1ccc(CN2C(=O)C(C(=O)Nc3ccc(C(F)(F)F)cc3-c3cc(C(F)(F)F)ncn3)=C(O)C3(CCCC3)N2C)c(F)c1F)C[C@H](O)[C@@H](O)[C@H](O)[C@H](O)CO [Example 420, 7-[[2,3-Difluoro-4-[2-[2-[methyl-[(2S,3R,4R,5R)-2,3,4,5,6-pentahydroxyhexyl]amino]ethoxy]ethoxy]phenyl]methyl]-10-hydroxy-6-methyl-8-oxo-N-[4-(trifluoromethyl)-2-[6-(trifluoromethyl)pyrimidin-4-yl]phenyl]-6,7-diazaspiro[4.5]dec-9-ene-9-carboxamide]  19%
30. CN1N(Cc2ccc(OCCCCCOC[C@H](O)CO)c(F)c2F)C(=O)C(C(=O)Nc2ccc(C(F)(F)F)cc2-c2ccc(C(F)(F)F)nc2)=C(O)C12CCCC2 [Example 388]  15%
